Measured values published in patent US7786141B2 (Vertex Pharmaceuticals Incorporated, priority 2004, dated 2010).
Read-outs that look alike come from different tables or passages of the source.

Legend:
M4 muscarinic receptor = molecular target: T1, M4 muscarinic receptor (Homo sapiens, UniProt P08173); experiment: Functional mobilization of intracellular calcium (FLIPR) in M4-CHO cells; type: cell-based
T1 construct: expressed in transfected cells; host or cells: CHO (M4-CHO)
T1 sequence (P08173 1-479): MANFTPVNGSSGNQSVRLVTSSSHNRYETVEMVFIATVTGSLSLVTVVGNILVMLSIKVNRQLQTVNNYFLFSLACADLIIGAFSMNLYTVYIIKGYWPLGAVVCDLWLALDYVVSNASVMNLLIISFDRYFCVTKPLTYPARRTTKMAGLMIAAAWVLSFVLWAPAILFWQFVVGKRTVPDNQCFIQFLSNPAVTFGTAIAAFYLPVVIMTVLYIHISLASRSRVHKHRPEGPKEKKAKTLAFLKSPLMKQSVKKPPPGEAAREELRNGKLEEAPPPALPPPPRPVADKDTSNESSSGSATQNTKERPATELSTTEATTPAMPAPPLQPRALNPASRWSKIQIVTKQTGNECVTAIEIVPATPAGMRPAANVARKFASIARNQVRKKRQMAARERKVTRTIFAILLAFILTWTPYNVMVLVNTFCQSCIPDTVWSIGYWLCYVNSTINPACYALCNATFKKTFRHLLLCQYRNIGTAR
Outline: (§1)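 FLIPR Ca2+ read, ex 488/em 540 nm, 60 s. Recombinant CHO lines (M1 or M4), dye-loaded Fluo-3 AM 60-90 min at 37° C, probenecid 1 mM, pH 7.4. Agonist: compound alone; inhibition: 15 min compound pre-incubation, then carbachol at EC80 for that subtype.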

M1 muscarinic receptor = molecular target: T2, M1 muscarinic receptor (Homo sapiens, UniProt P11229); experiment: Functional mobilization of intracellular calcium (FLIPR) in M1-CHO cells; type: cell-based
T2 construct: expressed in transfected cells; host or cells: CHO (M1-CHO)
T2 sequence (P11229 1-460): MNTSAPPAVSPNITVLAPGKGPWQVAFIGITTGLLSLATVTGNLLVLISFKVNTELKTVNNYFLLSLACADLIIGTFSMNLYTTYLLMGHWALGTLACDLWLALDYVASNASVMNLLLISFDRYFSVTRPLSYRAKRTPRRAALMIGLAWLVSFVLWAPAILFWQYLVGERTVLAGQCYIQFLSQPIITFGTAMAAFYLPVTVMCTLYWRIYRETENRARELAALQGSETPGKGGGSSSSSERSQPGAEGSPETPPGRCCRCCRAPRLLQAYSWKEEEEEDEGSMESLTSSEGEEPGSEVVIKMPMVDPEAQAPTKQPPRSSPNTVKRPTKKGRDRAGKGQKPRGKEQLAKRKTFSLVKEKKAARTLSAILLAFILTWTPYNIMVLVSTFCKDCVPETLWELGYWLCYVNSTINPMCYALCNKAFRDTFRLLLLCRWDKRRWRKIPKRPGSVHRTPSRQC
Outline: as §1

[1] = Table 4, 100% efficacy is the maximum response obtained with the Carbachol control
[2] = Table 4, modulating M4 receptor
[3] = Table 4, modulating M1 receptor
[4] = M4 receptor, calcium mobilization
[5] = M4 receptor, calcium mobilization, read-out: M4 Efficacy
[6] = M1 receptor, calcium mobilization
[7] = M1 receptor, calcium mobilization, read-out: M1 Efficacy
[8] = Table 4, M4 receptor, calcium mobilization (FLIPR)
[9] = Table 4, M1 receptor, calcium mobilization (FLIPR)

SMILES	Emax (M4 muscarinic receptor; [1])	Emax (M1 muscarinic receptor; [1])	M4 Activity (M4 muscarinic receptor; [4])	Emax (M4 muscarinic receptor; [5])	M1 Activity (M1 muscarinic receptor; [6])	Emax (M1 muscarinic receptor; [7])	further results
CC(=O)N[C@H]1CC2(CCN(C3CCCCC3)C2)c2ccc(F)cc21 (some centres unmarked) [compound 691]	< 25%	25 to 100%	–	–	–	–	M4 Activity (M4 muscarinic receptor; [2]): x (activity was measured to be greater than 5.0 μM); M1 Activity (M1 muscarinic receptor; [3]): x (activity was measured to be greater than 5.0 μM)
O=C(O[C@H]1CCOC1)N1C2CCC1CC(N1CCC3(CCc4ccccc43)CC1)C2 (some centres unmarked) [compound 355]	–	–	xx (activity was measured to be between 0.1 μM and 1.0 μM)	65 to 85%	xx (activity was measured to be between 0.1 μM and 1.0 μM)	65 to 85%	–
CCOC(=O)N1CCC(N2CCC3(CC2)CN(C(=O)CC(C)(C)C)c2ccc(F)cc23)CC1 [compound 194]	–	–	x (activity was measured to be greater than 1.0 μM)	65 to 85%	xxx (activity was measured to be less than 0.1 μM)	> 85%	–
O=C(N[C@H]1CC2(CCN(C[C@@H]3C[C@H]4C=C[C@H]3C4)CC2)c2ccccc21)c1ccoc1 [compound 519]	< 25%	25 to 100%	–	–	–	–	M4 Activity (M4 muscarinic receptor; [2]): x (activity was measured to be greater than 5.0 μM); M1 Activity (M1 muscarinic receptor; [3]): xxx (activity was measured to be less than 2.0 μM)
O=C(O)C1CC2(CCN(CC3CCCC3)CC2)c2ccccc21 (centres unmarked) [compound 548]	< 25%	< 25%	–	–	–	–	M4 Activity (M4 muscarinic receptor; [2]): x (activity was measured to be greater than 5.0 μM); M1 Activity (M1 muscarinic receptor; [3]): x (activity was measured to be greater than 5.0 μM)
CCOC(=O)N1CCC(N2CCC3(CC2)CN(C(C)=O)c2ccc(-c4ccc(NC(C)=O)cc4)cc23)CC1 [compound 10]	–	–	xx (activity was measured to be between 0.1 μM and 1.0 μM)	65 to 85%	xx (activity was measured to be between 0.1 μM and 1.0 μM)	65 to 85%	–
CCCC1CCC(N2CCC3(CC2)CNc2ccccc23)CC1 (centres unmarked) [compound 334]	–	–	x (activity was measured to be greater than 1.0 μM)	< 65%	x (activity was measured to be greater than 1.0 μM)	< 65%	–
CC(=O)N1CC2(CCN(C[C@@H]3CCN(C(=O)OCC(F)F)C3)CC2)c2ccccc21 [compound 1015]	< 25%	25 to 100%	–	–	–	–	M4 Activity (M4 muscarinic receptor; [8]): xxx (activity was measured to be less than 2.0 μM); M1 Activity (M1 muscarinic receptor; [9]): xx (activity was measured to be between 2.0 μM and 5.0 μM)
CCNC(=O)N1CC2(CCN(C3CC4CCC3C4)CC2)c2cc(C)ccc21 (centres unmarked) [compound 400]	–	–	–	–	–	–	EC50 (M4 muscarinic receptor; M4-CHO cells, calcium mobilization (FLIPR)): > 1000 nM; Emax (M4 muscarinic receptor; M4-CHO cells, calcium mobilization (FLIPR), read-out: M4 Efficacy): < 65%; EC50 (M1 muscarinic receptor; M1-CHO cells, calcium mobilization (FLIPR)): > 1000 nM; Emax (M1 muscarinic receptor; M1-CHO cells, calcium mobilization (FLIPR), read-out: M1 Efficacy): < 65%
Clc1ccc2c(c1)C1(CCO2)CCN(C2CCOCC2)CC1 [compound 178]	–	–	x (activity was measured to be greater than 1.0 μM)	65 to 85%	xx (activity was measured to be between 0.1 μM and 1.0 μM)	> 85%	–
CC1(C)C(=O)c2ccccc2C12CCN([C@@H]1C[C@@H]3CC[C@H]1C3)CC2 [compound 758]	< 25%	< 25%	–	–	–	–	M4 Activity (M4 muscarinic receptor; [2]): x (activity was measured to be greater than 5.0 μM); M1 Activity (M1 muscarinic receptor; [3]): x (activity was measured to be greater than 5.0 μM)
CC(=O)NC1CCC2(CCN(CCC3CCN(C(C)=O)CC3)CC2)c2ccccc21 (centres unmarked) [compound 833]	25 to 100%	25 to 100%	–	–	–	–	M4 Activity (M4 muscarinic receptor; [8]): xxx (activity was measured to be less than 2.0 μM); M1 Activity (M1 muscarinic receptor; [9]): xxx (activity was measured to be less than 2.0 μM)
CC1(C)C(=O)c2ccccc2C12CCN(C[C@H]1C[C@@H]3C=C[C@@H]1C3)CC2 [compound 20]	–	–	xx (activity was measured to be between 0.1 μM and 1.0 μM)	< 65%	x (activity was measured to be greater than 1.0 μM)	< 65%	–
COCCOC(=O)N1CCC(CN2CCC3(CC2)CN(C(C)=O)c2ccc(F)cc23)CC1 [compound 26]	–	–	xx (activity was measured to be between 0.1 μM and 1.0 μM)	< 65%	xxx (activity was measured to be less than 0.1 μM)	65 to 85%	–
